# Patent US4100153A, “(D-Trp^5)-somatostatin and analogues thereof” (American Home Products Corporation, priority 1977, dated 1978)
# Bridge positions count the residues as written; N and C are the ends. Square brackets hold non-standard residues; d marks the D form. Peptide text beside a SMILES is read from it.
# Experiments:
# Format in all cases: in vivo
# growth hormone = experiment: Arginine-stimulated hormone secretion in Nembutal-treated rats, radioimmunoassay of growth hormone
# Procedure: (§1) Albino male rats were administered Nembutal intraperitoneally at a dose of 50 milligrams per kilogram. Fifteen minutes later a subcutaneous injection of the test compound or physiological saline was administered. Ten minutes later 0.5 milliliters of arginine (300 milligrams per milliliter, pH 7.2) is injected into the heart. Five minutes after receipt of the arginine the rats are decapitated and blood is collected into trasylol-EDTA. An appropriate aliquot was assayed for growth hormone, insulin, and glucagon by radioimmunoassay.
# insulin = experiment: Arginine-stimulated hormone secretion in Nembutal-treated rats, radioimmunoassay of insulin
# Procedure: as §1
# glucagon = experiment: Arginine-stimulated hormone secretion in Nembutal-treated rats, radioimmunoassay of glucagon
# Procedure: as §1
# growth hormone secretion = experiment: Effect on growth hormone secretion over time in rats treated with Nembutal, plasma GH by radioimmunoassay; conditions: for Growth Hormone: dose 1,000 μg/kg
# Procedure: (D-Trp^5, D-Trp^8)-Somatostatin was also tested for its effect on growth hormone secretion in rats treated with Nembutal after 1, 2, 4, 5, 6, and 8 hours. Blood samples were obtained by cardiac puncture and plasma separated for radio immunoassay of GH concentration.
compound,measurement,setting,value
"C[C@H](N)C(=O)NCC(=O)N[C@H]1CSSC[C@@H](C(=O)O)NC(=O)[C@H](CO)NC(=O)[C@H]([C@@H](C)O)NC(=O)[C@H](Cc2ccccc2)NC(=O)[C@H]([C@@H](C)O)NC(=O)[C@H](CCCCN)NC(=O)[C@@H](Cc2c[nH]c3ccccc23)NC(=O)[C@H](Cc2ccccc2)NC(=O)[C@H](Cc2ccccc2)NC(=O)[C@@H](Cc2c[nH]c3ccccc23)NC(=O)[C@H](CCCCN)NC1=O [(D-Trp^5, D-Trp^8)-Somatostatin, L-alanylglycyl-L-cysteinyl-L-lysyl-D-tryptophyl-L-phenylalanyl-L-phenylalanyl-D-tryptophyl-L-lysyl-L-threonyl-L-phenylalanyl-L-threonyl-L-seryl-L-cysteine cyclic (3→14)-disulfide, triacetate] (H-AGCK[dW]FF[dW]KTFTSC-OH; disulfide 3-14)",GH,"growth hormone; dose 10 μg/kg subcutaneous, control 133 ± 32",40 ± 6 ng/mL
same,GH,"growth hormone; dose 100 μg/kg subcutaneous, control 133 ± 32",25 ± 5 ng/mL
same,GH,"growth hormone; dose 1,000 μg/kg subcutaneous, blood 15 min after dosing, 5 min after arginine, control 259 ± 29",52 ± 5 ng/mL
same,Effect on secretion of growth hormone (in words),growth hormone; dose of 10 or 100 μg/kg,effective agent for reducing secretion of growth hormone
same,Effect on release of growth hormone (in words),growth hormone; higher dose (1 mg/kg),inhibited release of growth hormone
same,Insulin,"insulin; dose 10 μg/kg subcutaneous, control 348 ± 36",183 ± 12 μU/ml
same,Insulin,"insulin; dose 100 μg/kg subcutaneous, control 348 ± 36",105 ± 9 μU/ml
same,Insulin,"insulin; dose 1,000 μg/kg subcutaneous, control 314 ± 46",33 ± 6 μU/ml
same,Effect on secretion of insulin (in words),insulin; dose of 10 or 100 μg/kg,effective agent for reducing secretion of growth hormone and insulin
same,Effect on release of insulin (in words),insulin; higher dose (1 mg/kg),"inhibited release of growth hormone, insulin"
same,Glucagon,"glucagon; dose 10 μg/kg subcutaneous, control 44 ± 8, marked * not significant",36 ± 5 pg/mL
same,Glucagon,"glucagon; dose 100 μg/kg subcutaneous, control 44 ± 8, marked * not significant",31 ± 5 pg/mL
same,Glucagon,"glucagon; dose 1,000 μg/kg subcutaneous, control 46 ± 7",17 ± 4 pg/mL
same,Effect on glucagon levels (in words),glucagon; dose of 10 or 100 μg/kg,without materially affecting glucagon levels
same,Effect on release of glucagon (in words),glucagon; higher dose (1 mg/kg),"inhibited release of growth hormone, insulin, and glucagon"
same,Duration of inhibition of growth-hormone release (in words),"growth hormone secretion; 1,000 μg/kg, 1 to 8 hours",long-acting inhibition of growth-hormone release
same,Growth Hormone,"growth hormone secretion; time 1 hr, control 61 ± 14",5 ± 2 ng/mL
same,Growth Hormone,"growth hormone secretion; time 2 hrs, control 227 ± 44",16 ± 2 ng/mL
same,Growth Hormone,"growth hormone secretion; time 4 hrs, control 84 ± 13",32 ± 10 ng/mL
same,Growth Hormone,"growth hormone secretion; time 5 hrs, control 73 ± 11",16 ± 3 ng/mL
same,Growth Hormone,"growth hormone secretion; time 6 hrs, control 156 ± 42",22 ± 2 ng/mL
same,Growth Hormone,"growth hormone secretion; time 8 hrs, control 55 ± 22",31 ± 11 ng/mL
